Results taken from patent publication US20220249710A1, “BIOREDUCTIVELY-ACTIVATED COMPOUNDS, THEIR PRODRUGS, RADIOPHARMACEUTICALS, THE COMPOSITIONS, AND THEIR APPLICATIONS IN MULTIMODAL THERANOSTIC MANAGEMENT OF HYPOXIA DISEASES INCLUDING CANCER” (The Governors of the University of Alberta, priority 2017, published 2022).

Test system: FaDu tumor
Assay: In vivo radiosensitization therapy of FaDu tumor-bearing NuNu mice
Details: bi-flank FaDu tumor-bearing NuNu mice, single chemical dose (20% of MTD) followed by single 10 Gy external beam radiotherapy
Text: In very brief, the evaluation of radiosensitization potential of IAZA using a single chemical dose (20% of the maximum tolerated dose; MTD) and a single radiation dose (10 Gy) was done in ‘bi-flank FaDu tumor-bearing NuNu mice was done. Benefits of IAZA-bestowed radiosensitization therapy effects were compared with the conventional radiotherapy alone (a single 10 Gy dose).
FIGS. 28 and 29 depict IN VIVO RADIOSENSITIZATION THERAPY OF FaDu TUMOR BEARING NU-NU MICE USING A SINGLE CHEMICAL DOSE OF IAZA (20% of MTD) AND 10 Gy RADIATION DOSE (Green stain indicates the hypoxic region in tumor)

[1] = compared with radiotherapy alone

## O=[N+]([O-])c1nccn1[C@@H]1O[C@H](C[125I])[C@@H](O)[C@@H]1O [IAZA]
  morbidity: no morbidity
[1]
  hypoxic content of the tumor: Reduction in hypoxic content of the tumor
  tumor size: tumor size reduction
